Key:
[1] = Isothermal titration calorimetry, CCL2 wild type and variants binding to fucosylated chitobiose
Protocol: ITC experiments were performed on a VP-ITC instrument (MicroCal). The calorimeter was calibrated according to the manufacturer's instructions. Protein and carbohydrate samples were dialyzed against NMR buffer at room temperature using a 3.5 kDa membrane (Spectra/Por) and Micro DispoDialyzer (100 Da cutoff; Harvard Apparatus), respectively. The disaccharide Fucα1,3GlcNAc-OMe was not dialyzed but dissolved in NMR buffer. The sample cell (1.4 mL) was loaded with 70 µM protein; carbohydrate concentration in the syringe was 2–4 mM. A titration experiment typically consisted of 30–50 injections, each of 3 µL volume and 6 s duration, with a 6.7 min interval between additions. Stirring rate was 307 rpm. Raw data were integrated, corrected for nonspecific heats, normalized for the molar concentration, and analyzed according to a 1∶1 binding model.

[2] = test system: C. elegans wildtype (N2); assay: C. elegans liquid toxicity assay, feeding on recombinant E. coli; assay type: in vivo, Caenorhabditis elegans
[3] = test system: C. elegans bre-1(ye4); assay: as above; assay type: in vivo, Caenorhabditis elegans; settings: bre-1(ye4) mutant, vs vector control
[4] = test system: C. elegans fut-1(ok892); assay: as above; assay type: in vivo, Caenorhabditis elegans; settings: fut-1(ok892) mutant
[5] = test system: C. elegans fut-6(ok475)fut-1(ok892); assay: as above; assay type: in vivo, Caenorhabditis elegans; settings: fut-6(ok475)fut-1(ok892) double mutant, vs vector control
[6] = test system: D. melanogaster; assay: Biotoxicity assay with purified protein added to the rearing medium; assay type: in vivo, Drosophila melanogaster
[7] = test system: A. aegypti larvae; assay: Biotoxicity assay with recombinant E. coli; assay type: in vivo, Aedes aegypti; settings: CCL2-expressing E. coli vs vector control
[8] = test system: A. castellanii; assay: Biotoxicity assay with recombinant E. coli; assay type: in vivo, Acanthamoeba castellanii; settings: CCL2-expressing E. coli vs vector control
[9] = test system: C. elegans fut-1(ok892); assay: CCL2 nematotoxicity assay in solid media; assay type: in vivo, Caenorhabditis elegans
[10] = target: T1, Y57A (Coprinopsis cinerea, UniProt B3GA02, Y57A); assay: biochemical; assay type: binding
T1 construct: gene ccl2
T1 sequence (B3GA02 2-142 Y57A limits assumed): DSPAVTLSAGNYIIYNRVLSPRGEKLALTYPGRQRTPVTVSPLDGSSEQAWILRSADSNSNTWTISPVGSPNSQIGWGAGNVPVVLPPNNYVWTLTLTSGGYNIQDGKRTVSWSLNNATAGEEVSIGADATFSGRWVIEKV

[11] = target: T2, W78A (Coprinopsis cinerea, UniProt B3GA02, W78A); assay: biochemical; assay type: binding
T2 construct: gene ccl2
T2 sequence (B3GA02 2-142 W78A limits assumed): as the sequence (B3GA02 2-142 Y57A limits assumed) above, with A56Y, W77A counted along it

[12] = target: T3, L87A (Coprinopsis cinerea, UniProt B3GA02, L87A); assay: biochemical; assay type: binding
T3 construct: gene ccl2
T3 sequence (B3GA02 2-142 L87A limits assumed): as the sequence (B3GA02 2-142 Y57A limits assumed) above, with A56Y, L86A counted along it

[13] = target: T4, N90A (Coprinopsis cinerea, UniProt B3GA02, N90A); assay: biochemical; assay type: binding
T4 construct: gene ccl2
T4 sequence (B3GA02 2-142 N90A limits assumed): as the sequence (B3GA02 2-142 Y57A limits assumed) above, with A56Y, N89A counted along it

[14] = target: T5, N91A (Coprinopsis cinerea, UniProt B3GA02, N91A); assay: biochemical; assay type: binding
T5 construct: gene ccl2
T5 sequence (B3GA02 2-142 N91A limits assumed): as the sequence (B3GA02 2-142 Y57A limits assumed) above, with A56Y, N90A counted along it

[15] = target: T6, Y92A (Coprinopsis cinerea, UniProt B3GA02, Y92A); assay: biochemical; assay type: binding
T6 construct: gene ccl2
T6 sequence (B3GA02 2-142 Y92A limits assumed): as the sequence (B3GA02 2-142 Y57A limits assumed) above, with A56Y, Y91A counted along it

[16] = target: T7, V93A (Coprinopsis cinerea, UniProt B3GA02, V93A); assay: biochemical; assay type: binding
T7 construct: gene ccl2
T7 sequence (B3GA02 2-142 V93A limits assumed): as the sequence (B3GA02 2-142 Y57A limits assumed) above, with A56Y, V92A counted along it

[17] = target: T8, W94A (Coprinopsis cinerea, UniProt B3GA02, W94A); assay: biochemical; assay type: binding
T8 construct: gene ccl2
T8 sequence (B3GA02 2-142 W94A limits assumed): as the sequence (B3GA02 2-142 Y57A limits assumed) above, with A56Y, W93A counted along it

[18] = target: T9, K109A (Coprinopsis cinerea, UniProt B3GA02, K109A); assay: biochemical; assay type: binding
T9 construct: gene ccl2
T9 sequence (B3GA02 2-142 K109A limits assumed): as the sequence (B3GA02 2-142 Y57A limits assumed) above, with A56Y, K108A counted along it

[19] = ITC, 299K, protein binding to GlcNAcβ1,4[Fucα1,3]GlcNAcβ1-sp
[20] = ITC, 299K, protein binding to GlcNAcβ1,4[Fucα1,3]GlcNAcβ1-sp, listed as Wild type
[21] = Table S6, ligand GlcNAc1,4[Fuc1,3]GlcNAc-O-spacer, This study
[22] = purified CCL2, relative to the control (BSA)

**Q.** Which Kd [1, 19] does the source give for “CCL2: novel fruiting body lectin from the ink cap mushroom Coprinopsis cinerea, recombinant, monomeric β-trefoil” here?
**A.** The Kd was 1.4 µM.

**Q.** And the ΔH [1, 19]?
**A.** The ΔH was -12 kcal/mol.

**Q.** And the “−TΔS” value [1, 19]?
**A.** The value was 3.82 kcal/mol.

**Q.** What about the ΔH [1, 20] of the same molecule?
**A.** Its ΔH is -11.9 kcal/mol.

**Q.** What about the “−TΔS” value [1, 20] of the same molecule?
**A.** Its value is 3.9 kcal/mol.

**Q.** What about the “–TΔS” value [1, 21] of the same molecule?
**A.** The value was 3.9 kcal/mol.

**Q.** What about the “–ΔH” value [1, 21] of the same molecule?
**A.** The value was 11.9 kcal/mol.

**Q.** What about the “reduction of development of L1 larvae” value ([2]; 30% of CCL2-expressing E. coli among the fed bacteria) of the same molecule?
**A.** Its value is “more than 95%”.

**Q.** And the “toxicity: development of L1 larvae vs vector control” value ([2]; N2 fed E. coli expressing the lectin, L4 stage after 48 h)?
**A.** Its value is “stopped the development of all wildtype (N2) L1 larvae”.

**Q.** And the “susceptibility to CCL2-mediated toxicity” value [3]?
**A.** The value was “not and completely resistant”.

**Q.** And the “larvae reaching L4 stage” value ([4]; after 48 hours)?
**A.** The value was “half”.

**Q.** And the “susceptibility to CCL2-mediated toxicity” value ([4]; vs vector control)?
**A.** Its value is “partially resistant”.

**Q.** And the “susceptibility to CCL2-mediated toxicity” value [5]?
**A.** The value was “not and completely resistant”.

**Q.** And the “development of pupae and flies vs control” value ([6]; purified CCL2, BSA control)?
**A.** The value was “significantly different from the control”.

**Q.** What about the “delay in development of flies” value [6, 22] of the same molecule?
**A.** The value was 10 fold.

**Q.** And the “delay in development of pupae” value [6, 22]?
**A.** The value was 4 fold.

**Q.** What about the toxicity [7] of the same molecule?
**A.** Its toxicity is “No significant differences”.

**Q.** What about the toxicity [8] of the same molecule?
**A.** Its toxicity is “No significant differences”.

**Q.** What about the “additional time required to reach L4” value [9] of the same molecule?
**A.** Its value is “at least 24 h”.

**Q.** What about the “resistance to CCL2” value [9] of the same molecule?
**A.** Its value is “partial resistance”.

**Q.** With `CC(=O)N[C@H]1[C@H](O[C@H]2[C@H](O[C@@H]3O[C@@H](C)[C@@H](O)[C@@H](O)[C@@H]3O)[C@@H](NC(C)=O)[C@H](OCCCCCC(=O)O)O[C@@H]2CO)O[C@H](CO)[C@@H](O)[C@@H]1O` [GlcNAcβ1,4[Fucα1,3]GlcNAcβ1-sp, fucosylated chitobiose, GlcNAcβ1,4[Fucα1,3]GlcNAcβ-O(CH2)5COOH] as the molecule, how does the Kd [10] read?
**A.** Its Kd is 10.9 µM.

**Q.** And the Kd [11]?
**A.** Its Kd is 62.9 µM.

**Q.** What about the Kd [12] of the same molecule?
**A.** Its Kd is 26.3 µM.

**Q.** And the Kd [13]?
**A.** Its Kd is 6.7 µM.

**Q.** And the Kd [14]?
**A.** The Kd was 0.18 µM.

**Q.** And the Kd [15]?
**A.** Its Kd is greater than 500 µM.

**Q.** What about the Kd [16] of the same molecule?
**A.** The Kd was 27.2 µM.

**Q.** And the Kd [17]?
**A.** The Kd was 310 µM.

**Q.** And the Kd [18]?
**A.** The Kd was 1.5 µM.

Reference: publication PMC3355094 (PLoS Pathogens, 2012)
